The values below come from paper PMC4667193 (Scientific Reports, 2015).

What is called Ki is a measure of affinity in units of concentration, obtained from inhibition or displacement. One may read the pKi as −log10 of the Ki, conventionally taken in molar units.

In assay [1] the test system is rat primary hippocampal cell culture. In words: total [^3H]inositol phosphate accumulation in hippocampal cells. The format is cell-based. The settings on record: 10^−8 to 10^−3 M. The protocol: Hippocampal cells (1 × 10^6 cells/well) were allowed to equilibrate for 10 minutes with a nutrient solution of the following composition (mM): NaCl 157.00; KCl 5.60; CaCl2 0.27; MgCl2 3.00; NaHCO3 1.80; glucose 5.50 (pH 7.0–7.2) at 37 °C under constant shaking. Cells were incubated with 5 μCi of myo[^3H]inositol (specific activity 18.0 Ci/mmol) for 80 minutes, and lithium chloride (10 mM) for additional 30 minutes. Afterwards, the cells were incubated in the absence (basal level) and in the presence of carbachol (positive control) and AEME (10^−8 to 10^−3 M) for 10 minutes. Cells were removed from the plate using a 0.1 M NaOH solution and washed three times with nutrient solution, transferred to 2 mL of methanol:chloroform (2:1 v-v) at 4 °C and homogenized with a Ultra-Turrax T25 homogenizer at 9500 rpm. Chloroform (0.62 mL) and H2O (0.93 mL) were added to the homogenate, and the solution was centrifuged for 5 minutes at 1,000× g to separate aqueous and organic phases. Total [^3H]inositol phosphate was measured as previously described by Ascoli et al.[45] with slight modification. The aqueous layer was neutralized with 0.1 M HCl and then mixed with 1 mL anion-exchange resin (Dowex AG-X8, formate form, 200–400 mesh), allowed to equilibrate for 30 minutes at room temperature, under agitation, and centrifugated at 1,000× g, for 5 minutes at 4 °C. The resin was then washed sequentially, with 10 mM myo-inositol (2 mL) and 5 mM sodium tetraborate/60 mM sodium formate (2 mL). The resin was incubated for 30 minutes at room temperature with 2 mL of 0.1 M formic acid/1 M ammonium formate). The total [^3H]inositol phosphate was eluted and placed in scintillation vials containing OptiPhase HiSafe 3. The amount of radioactivity was determined in scintillation β-counter (LS 6500 IC, Beckman). Total [^3H]inositol phosphate was expressed as percentage above basal level.

The target of another assay is T1, Rat M1 mAChR (Rattus norvegicus, UniProt P08482).
T1 construct: host or cells: CHO (CHO-K1) cells
T1 sequence (P08482 1-460): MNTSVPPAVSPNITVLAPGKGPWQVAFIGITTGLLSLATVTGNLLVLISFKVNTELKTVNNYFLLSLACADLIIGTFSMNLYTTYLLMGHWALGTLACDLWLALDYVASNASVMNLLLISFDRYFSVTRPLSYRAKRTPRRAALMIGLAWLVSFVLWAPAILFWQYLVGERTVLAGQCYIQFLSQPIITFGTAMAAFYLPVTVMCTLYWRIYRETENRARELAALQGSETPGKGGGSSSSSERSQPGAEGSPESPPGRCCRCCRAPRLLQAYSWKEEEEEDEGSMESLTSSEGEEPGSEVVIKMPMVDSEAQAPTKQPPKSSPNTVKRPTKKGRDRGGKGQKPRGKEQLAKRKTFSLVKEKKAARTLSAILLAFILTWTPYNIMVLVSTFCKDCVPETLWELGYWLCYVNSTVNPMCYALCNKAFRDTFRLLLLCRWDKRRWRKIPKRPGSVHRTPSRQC
In words: [^3H]NMS radioligand competition binding, CHO cell membranes. Particulars: rat M1, 0.1 nM [^3H]NMS. The method, then: (§1) Membranes were prepared from CHO cells stably expressing individual rat mAChRs (rM1 to rM5). Briefly, media was removed, cells were washed with PBS and harvested with PBS into a centrifuge bottle. Cells were spun at 2,000 g for 5 minutes at 4 °C. After harvesting, the supernatant was gently discarded and cold membrane preparation buffer [Hanks’ balanced salt solution (HBSS; Invitrogen), 4.17 mM sodium bicarbonate, 20 mM HEPES and 0.5 mM EDTA] was added (10 mL/dish). Cells were then homogenized for 5–10 seconds with a rotary homogenizer (Polytron®) and centrifuged at 20,000g for 20 minutes at 4 °C. The homogenization/centrifugation cycle was repeated twice. After the last centrifugation, the supernatant was gently discarded and the pellet was resuspended in cold membrane preparation buffer (up to 2 mL). All binding reactions were performed in a total volume of 1 mL containing 25 μg of membrane protein. […] The equilibrium binding was terminated by rapid filtration using a 96-well harvester (Brandel®). Filters were washed three times with ice-cold harvesting buffer and were dried overnight. Radioactivity was counted using a TopCount NXT (PerkinElmer®) and counts were normalized to the maximal specific binding in the presence of vehicle. Saturation and competition binding data were analyzed using a weighted nonlinear least-squares interactive curve-fitting program GraphPad Prism (GraphPad Prism Software version 5.0). A mathematical model for one or two binding sites was applied. The equilibrium dissociation constant (KD) and the binding capacity (Bmax) were determined. The inhibition constant (Ki) was determined from competition curves using the Cheng and Prusoff equation[52].
Background: In a radioligand displacement assay an active substance lowers the binding of a labelled ligand.

The next assay concerns the target T2, Rat M3 mAChR (Rattus norvegicus, UniProt P08483).
T2 construct: host or cells: CHO (CHO-K1) cells
The description is as above. Particulars: rat M3, 0.1 nM [^3H]NMS. The protocol: as §1

Another assay deals with T3, Rat M5 mAChR (Rattus norvegicus, UniProt P08911).
T3 construct: host or cells: CHO (CHO-K1) cells
T3 sequence (P08911 1-531): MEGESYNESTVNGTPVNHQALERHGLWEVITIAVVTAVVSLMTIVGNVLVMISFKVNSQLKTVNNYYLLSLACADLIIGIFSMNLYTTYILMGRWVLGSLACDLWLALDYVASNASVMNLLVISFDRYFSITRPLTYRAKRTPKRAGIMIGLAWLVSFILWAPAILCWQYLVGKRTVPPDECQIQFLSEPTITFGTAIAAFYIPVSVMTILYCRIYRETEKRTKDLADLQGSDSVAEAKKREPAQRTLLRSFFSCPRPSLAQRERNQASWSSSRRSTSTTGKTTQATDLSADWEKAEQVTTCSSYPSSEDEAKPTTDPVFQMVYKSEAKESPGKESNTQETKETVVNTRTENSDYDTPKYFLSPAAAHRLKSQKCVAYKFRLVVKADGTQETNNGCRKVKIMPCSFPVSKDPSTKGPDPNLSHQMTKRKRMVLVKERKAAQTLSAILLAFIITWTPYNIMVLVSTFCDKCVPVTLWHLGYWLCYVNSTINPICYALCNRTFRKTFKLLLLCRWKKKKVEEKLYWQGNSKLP
The description is as above. The settings on record: rat M5, 0.1 nM [^3H]NMS. The method, then: as §1

Assay [2] concerns the target muscarinic cholinergic receptors. The settings on record: [^3H]QNB, rat hippocampus; cited from earlier work.
In the next assay the test system is caspase-3. Set-up: method as in PMID 22523227. Particulars: hippocampal neurons, 6 hours of exposure; cited from earlier work.

T2 sequence (P08483 whole entry): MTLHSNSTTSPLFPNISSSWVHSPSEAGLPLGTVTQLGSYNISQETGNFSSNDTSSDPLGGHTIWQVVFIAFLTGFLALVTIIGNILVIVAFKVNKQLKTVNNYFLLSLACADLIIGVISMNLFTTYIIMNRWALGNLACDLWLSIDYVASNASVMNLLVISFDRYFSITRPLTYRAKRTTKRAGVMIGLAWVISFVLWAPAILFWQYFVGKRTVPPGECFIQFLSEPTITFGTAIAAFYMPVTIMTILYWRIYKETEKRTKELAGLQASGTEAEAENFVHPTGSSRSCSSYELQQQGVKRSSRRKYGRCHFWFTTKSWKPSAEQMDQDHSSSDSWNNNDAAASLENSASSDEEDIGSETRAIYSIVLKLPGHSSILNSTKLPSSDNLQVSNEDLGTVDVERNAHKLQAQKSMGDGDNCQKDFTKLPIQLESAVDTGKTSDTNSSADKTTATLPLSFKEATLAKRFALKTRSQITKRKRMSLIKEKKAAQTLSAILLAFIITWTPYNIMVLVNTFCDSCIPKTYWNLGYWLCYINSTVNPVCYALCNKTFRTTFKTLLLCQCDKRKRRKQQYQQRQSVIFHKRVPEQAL

On to `COC(=O)C1=CC[C@@H]2CC[C@H]1N2C` [AEME, anhydroecgonine methyl ester], for which the “effect on total [^3H]inositol phosphate” value in assay [1] is recorded as “concentration-dependent increase”. In addition, in assay [1] (10 minutes), the “concentration giving maximum inositol phosphate accumulation” value is recorded as 10^−5 M. For the same compound, the Ki is 25.7 µM on Rat M1 mAChR, 33.9 µM on Rat M3 mAChR and 29.5 µM at Rat M5 mAChR. Also, the pKi in assay [2] is given as 4.15 ± 0.15. The caspase-3 activity result with caspase-3 is “increased”.
